Results published in publication PMC4519236 (Bioorganic & medicinal chemistry, 2013).
“Also recorded” adds a separate entry of the source.

What was measured:
α4β2* nAChR [1] = target: α4β2* nAChR (Rattus norvegicus, UniProt P09483+P12390); assay: Radioligand binding assay, α4β2* nAChR
α3β4* nAChR [2] = target: α3β4* nAChR (Homo sapiens, UniProt P30926+P32297); assay: Electrophysiology, α3β4* nAChR expressed in Xenopus oocytes; assay type: cell-based; details: 1 or 10 μM; co-applied at 1 μM with ACh; relative to ACh control
Chain of α3β4* nAChR (Homo sapiens, UniProt P30926+P32297) (P32297 32-505): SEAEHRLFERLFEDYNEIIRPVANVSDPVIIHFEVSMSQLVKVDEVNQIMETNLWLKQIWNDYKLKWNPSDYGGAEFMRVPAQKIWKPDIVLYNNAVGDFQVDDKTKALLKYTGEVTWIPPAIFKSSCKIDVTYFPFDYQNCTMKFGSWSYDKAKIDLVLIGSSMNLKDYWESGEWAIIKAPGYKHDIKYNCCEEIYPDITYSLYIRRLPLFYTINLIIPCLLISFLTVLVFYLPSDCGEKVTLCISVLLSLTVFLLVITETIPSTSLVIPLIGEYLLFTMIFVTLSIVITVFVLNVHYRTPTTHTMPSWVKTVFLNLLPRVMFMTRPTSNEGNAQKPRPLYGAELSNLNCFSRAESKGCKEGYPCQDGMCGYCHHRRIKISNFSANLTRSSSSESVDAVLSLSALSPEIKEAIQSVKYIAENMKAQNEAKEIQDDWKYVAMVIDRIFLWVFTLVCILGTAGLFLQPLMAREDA
Chain of α3β4* nAChR (Homo sapiens, UniProt P30926+P32297) (P30926 22-498): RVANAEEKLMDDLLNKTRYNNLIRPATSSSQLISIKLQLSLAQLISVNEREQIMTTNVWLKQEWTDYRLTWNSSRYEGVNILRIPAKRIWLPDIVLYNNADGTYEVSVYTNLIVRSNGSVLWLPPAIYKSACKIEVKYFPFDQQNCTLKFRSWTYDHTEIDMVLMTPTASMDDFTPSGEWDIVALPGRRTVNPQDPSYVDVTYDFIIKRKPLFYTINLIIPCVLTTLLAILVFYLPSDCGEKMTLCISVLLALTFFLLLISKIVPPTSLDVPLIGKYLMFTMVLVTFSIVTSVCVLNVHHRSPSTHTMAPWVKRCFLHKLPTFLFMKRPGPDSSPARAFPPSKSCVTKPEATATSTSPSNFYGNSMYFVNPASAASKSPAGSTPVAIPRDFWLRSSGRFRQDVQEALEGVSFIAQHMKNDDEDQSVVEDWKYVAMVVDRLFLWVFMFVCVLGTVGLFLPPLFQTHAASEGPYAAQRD

α4β2* nAChR [3] = target: α4β2* nAChR (Homo sapiens, UniProt P17787+P43681); assay: Electrophysiology, α4β2* nAChR expressed in Xenopus oocytes; assay type: cell-based; details: 1 or 10 μM; co-applied at 1 μM with ACh; relative to ACh control
Chain of α4β2* nAChR (Homo sapiens, UniProt P17787+P43681) (P43681 29-627 limits assumed): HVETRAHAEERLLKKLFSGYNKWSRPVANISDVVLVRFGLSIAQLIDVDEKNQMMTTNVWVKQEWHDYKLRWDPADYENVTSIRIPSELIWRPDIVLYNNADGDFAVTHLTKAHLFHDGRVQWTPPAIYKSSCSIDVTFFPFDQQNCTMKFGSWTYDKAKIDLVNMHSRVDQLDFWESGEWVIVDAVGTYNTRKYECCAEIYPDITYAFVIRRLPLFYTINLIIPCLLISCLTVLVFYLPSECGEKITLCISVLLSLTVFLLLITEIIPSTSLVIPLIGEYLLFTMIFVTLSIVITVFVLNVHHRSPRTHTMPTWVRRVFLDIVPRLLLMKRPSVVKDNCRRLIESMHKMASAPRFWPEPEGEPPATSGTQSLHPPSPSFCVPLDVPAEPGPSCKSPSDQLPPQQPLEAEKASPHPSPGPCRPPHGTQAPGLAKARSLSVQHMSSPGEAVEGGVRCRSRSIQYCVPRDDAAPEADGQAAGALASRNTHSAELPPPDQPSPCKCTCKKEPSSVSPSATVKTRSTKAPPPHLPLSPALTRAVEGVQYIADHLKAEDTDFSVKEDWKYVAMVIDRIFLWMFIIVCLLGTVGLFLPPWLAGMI
Chain of α4β2* nAChR (Homo sapiens, UniProt P17787+P43681) (P17787 26-502): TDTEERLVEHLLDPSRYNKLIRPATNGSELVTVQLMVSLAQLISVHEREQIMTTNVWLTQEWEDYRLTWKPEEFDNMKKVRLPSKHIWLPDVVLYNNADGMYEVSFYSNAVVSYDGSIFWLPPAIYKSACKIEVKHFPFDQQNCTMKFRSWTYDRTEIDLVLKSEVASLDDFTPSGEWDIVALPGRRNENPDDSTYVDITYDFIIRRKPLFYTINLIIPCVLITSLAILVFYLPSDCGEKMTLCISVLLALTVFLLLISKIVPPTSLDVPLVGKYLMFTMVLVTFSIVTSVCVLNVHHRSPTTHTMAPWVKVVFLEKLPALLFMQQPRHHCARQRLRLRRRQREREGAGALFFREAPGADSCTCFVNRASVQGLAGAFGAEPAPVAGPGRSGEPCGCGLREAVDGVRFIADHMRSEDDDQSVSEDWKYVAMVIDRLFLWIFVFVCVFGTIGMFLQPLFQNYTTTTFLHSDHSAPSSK

α3β4* nAChR [4] = assay: Radioligand binding assay, α3β4* nAChR
α7* nAChR = α7* nAChR (Rattus norvegicus, UniProt Q05941); assay: Radioligand binding assay, α7* nAChR
Chain of α7* nAChR (Q05941 23-502): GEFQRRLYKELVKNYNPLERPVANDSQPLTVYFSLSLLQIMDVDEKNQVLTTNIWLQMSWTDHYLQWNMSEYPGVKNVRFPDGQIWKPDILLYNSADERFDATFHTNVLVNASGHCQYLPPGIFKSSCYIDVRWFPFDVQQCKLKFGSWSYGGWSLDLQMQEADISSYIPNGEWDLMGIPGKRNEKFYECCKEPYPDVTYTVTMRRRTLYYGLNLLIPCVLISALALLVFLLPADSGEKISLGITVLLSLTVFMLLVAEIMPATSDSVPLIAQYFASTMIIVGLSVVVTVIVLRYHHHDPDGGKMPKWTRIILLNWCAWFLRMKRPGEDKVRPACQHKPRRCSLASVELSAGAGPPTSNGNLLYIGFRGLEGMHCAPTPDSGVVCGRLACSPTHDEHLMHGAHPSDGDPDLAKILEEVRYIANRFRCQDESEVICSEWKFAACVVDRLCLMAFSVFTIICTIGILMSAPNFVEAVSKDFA

(α1)2β1γδ nAChR = (α1)2β1γδ nAChR (Tetronarce californica, UniProt P02710+P02714+P02718); assay: Radioligand binding assay, muscle type
mouse model = details: ref [26]; cited from earlier work
muscle subtype nAChR = muscle subtype nAChR (Homo sapiens, UniProt P02708+Q07001); assay: Electrophysiology, muscle subtype nAChR expressed in Xenopus oocytes; assay type: cell-based; details: 1 or 10 μM; co-applied at 1 μM with ACh; relative to ACh control
Chain of muscle subtype nAChR (P02708 21-457): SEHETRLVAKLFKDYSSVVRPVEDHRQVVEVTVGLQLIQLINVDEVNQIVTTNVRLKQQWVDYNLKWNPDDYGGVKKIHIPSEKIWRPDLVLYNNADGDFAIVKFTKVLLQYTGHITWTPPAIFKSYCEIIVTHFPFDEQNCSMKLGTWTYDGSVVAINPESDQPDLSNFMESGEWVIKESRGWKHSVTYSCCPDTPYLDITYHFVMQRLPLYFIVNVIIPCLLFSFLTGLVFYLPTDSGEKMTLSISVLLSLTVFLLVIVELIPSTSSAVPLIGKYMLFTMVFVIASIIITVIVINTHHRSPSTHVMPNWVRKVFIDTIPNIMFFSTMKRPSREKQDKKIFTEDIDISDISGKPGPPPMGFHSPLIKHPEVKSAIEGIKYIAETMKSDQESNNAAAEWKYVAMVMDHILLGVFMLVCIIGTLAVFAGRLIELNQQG
Chain of muscle subtype nAChR (P11230 24-501 partner): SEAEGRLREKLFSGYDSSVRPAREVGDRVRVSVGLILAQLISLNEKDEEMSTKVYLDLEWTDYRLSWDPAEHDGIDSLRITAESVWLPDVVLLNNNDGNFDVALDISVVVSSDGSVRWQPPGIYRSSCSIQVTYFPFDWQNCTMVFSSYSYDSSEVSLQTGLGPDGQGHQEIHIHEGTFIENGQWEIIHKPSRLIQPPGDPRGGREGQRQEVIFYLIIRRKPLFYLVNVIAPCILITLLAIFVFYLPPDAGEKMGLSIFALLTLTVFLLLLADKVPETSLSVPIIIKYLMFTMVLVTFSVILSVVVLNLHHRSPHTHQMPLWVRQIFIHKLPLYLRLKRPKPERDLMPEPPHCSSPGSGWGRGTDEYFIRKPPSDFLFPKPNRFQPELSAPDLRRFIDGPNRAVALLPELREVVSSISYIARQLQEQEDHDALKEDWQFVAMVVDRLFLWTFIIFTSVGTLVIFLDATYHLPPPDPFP
Chain of muscle subtype nAChR (Q07001 22-517): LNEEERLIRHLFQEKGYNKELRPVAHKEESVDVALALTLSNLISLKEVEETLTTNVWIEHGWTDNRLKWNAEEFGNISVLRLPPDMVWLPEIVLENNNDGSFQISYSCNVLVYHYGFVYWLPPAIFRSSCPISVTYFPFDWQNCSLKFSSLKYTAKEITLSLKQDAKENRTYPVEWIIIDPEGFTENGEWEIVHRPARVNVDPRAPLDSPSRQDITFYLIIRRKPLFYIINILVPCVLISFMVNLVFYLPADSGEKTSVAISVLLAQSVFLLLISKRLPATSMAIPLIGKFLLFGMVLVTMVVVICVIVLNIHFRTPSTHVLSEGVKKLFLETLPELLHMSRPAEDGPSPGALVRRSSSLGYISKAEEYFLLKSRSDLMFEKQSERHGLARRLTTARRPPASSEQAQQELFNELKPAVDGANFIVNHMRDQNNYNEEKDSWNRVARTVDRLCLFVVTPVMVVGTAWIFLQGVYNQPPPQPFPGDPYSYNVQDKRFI

[5] = relative to vinyl spacer analog 26

Chain of α4β2* nAChR (Rattus norvegicus, UniProt P09483+P12390) (P09483 31-630): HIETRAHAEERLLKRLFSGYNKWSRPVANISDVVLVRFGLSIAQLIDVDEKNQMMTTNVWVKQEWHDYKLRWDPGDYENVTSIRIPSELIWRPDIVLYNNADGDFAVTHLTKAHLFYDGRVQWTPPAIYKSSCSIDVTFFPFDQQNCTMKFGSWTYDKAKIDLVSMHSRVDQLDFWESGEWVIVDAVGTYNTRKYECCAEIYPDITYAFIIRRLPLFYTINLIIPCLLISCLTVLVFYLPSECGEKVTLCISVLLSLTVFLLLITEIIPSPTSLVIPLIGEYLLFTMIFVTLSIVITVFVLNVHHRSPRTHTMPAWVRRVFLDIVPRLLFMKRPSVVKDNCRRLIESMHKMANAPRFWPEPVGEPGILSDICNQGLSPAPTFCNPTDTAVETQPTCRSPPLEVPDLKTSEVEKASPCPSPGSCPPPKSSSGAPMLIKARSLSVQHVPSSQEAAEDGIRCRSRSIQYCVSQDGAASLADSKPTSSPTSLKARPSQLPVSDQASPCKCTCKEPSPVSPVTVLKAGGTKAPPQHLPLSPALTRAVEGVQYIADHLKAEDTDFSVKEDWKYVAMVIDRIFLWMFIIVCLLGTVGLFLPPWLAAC
Chain of α4β2* nAChR (Rattus norvegicus, UniProt P09483+P12390) (P12390 25-500): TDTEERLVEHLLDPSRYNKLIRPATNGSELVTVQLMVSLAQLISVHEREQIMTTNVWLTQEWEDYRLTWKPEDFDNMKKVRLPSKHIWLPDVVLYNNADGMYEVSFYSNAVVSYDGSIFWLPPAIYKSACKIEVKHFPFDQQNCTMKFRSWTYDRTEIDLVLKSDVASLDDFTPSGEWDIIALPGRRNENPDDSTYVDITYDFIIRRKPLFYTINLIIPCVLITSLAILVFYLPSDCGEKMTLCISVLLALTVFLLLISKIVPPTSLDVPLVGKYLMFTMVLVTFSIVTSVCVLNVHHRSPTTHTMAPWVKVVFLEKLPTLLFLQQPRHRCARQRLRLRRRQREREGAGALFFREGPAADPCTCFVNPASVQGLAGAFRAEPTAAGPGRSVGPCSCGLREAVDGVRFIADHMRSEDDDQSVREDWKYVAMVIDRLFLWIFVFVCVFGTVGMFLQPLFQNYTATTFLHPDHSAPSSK

## O=c1c(-c2ccccc2)ccc2n1C[C@@H]1CNC[C@H]2C1 [Compound 4, 9-phenyl-1,2,3,4,5,6-hexahydro-1,5-methano-pyridino[1,2-a]diazocin-8-one]
α4β2* nAChR [1]; relative to cytisine 1
  α4β2* affinity lower than cytisine 1: about 1000 times

## O=C([C@@H]1C[C@H]1c1ccccc1)N1C[C@@H]2CNC[C@@H](C2)C1 [Compound 15, (1R,5S)-3,7-diazabicyclo[3.3.1]nonan-3-yl((1R,2R)-2-phenylcyclopropyl)methanone]
α3β4* nAChR [2]
  functional effect at α3β4*: agonist; also recorded: most potent agonist
α4β2* nAChR [1]
  Ki: ~1 nM
α4β2* nAChR [3]
  functional effect at α4β2*: strongest antagonistic effects

## O=C(/C=C/c1ccccc1)N1C[C@@H]2CNC[C@@H](C2)C1 [Compound 16, (E)-1-((1R,5S)-3,7-diazabicyclo[3.3.1]nonan-3-yl)-3-phenylprop-2-en-1-one]
α3β4* nAChR [4]
  affinity for α3β4* nAChR, in words: lacked affinity
α7* nAChR
  affinity for α7* nAChR, in words: lacked affinity
(α1)2β1γδ nAChR
  affinity for (α1)2β1γδ nAChR, in words: lacked affinity

## O=C(Cc1ccccc1)N1C[C@@H]2CNC[C@@H](C2)C1 [Compound 30, 1-((1R,5S)-3,7-diazabicyclo[3.3.1]nonan-3-yl)-2-phenylethanone]
α4β2* nAChR [1]; relative to compound 29
  increase of α4β2* affinity: about 8 fold

## O=C(CCc1ccccc1)N1C[C@@H]2CNC[C@@H](C2)C1 [Compound 32, 1-((1R,5S)-3,7-diazabicyclo[3.3.1]nonan-3-yl)-3-phenylpropan-1-one]
α7* nAChR
  affinity for α7* nAChR, in words: no affinity

## O=C(Cc1c(F)c(F)c(F)c(F)c1F)N1C[C@@H]2CNC[C@@H](C2)C1 [Compound 34, 1-((1R,5S)-3,7-diazabicyclo[3.3.1]nonan-3-yl)-2-(2,3,4,5,6-pentafluorophenyl)ethanone]
α4β2* nAChR [1]
  affinity for α4β2* / nAChRs tested, in words: failed to interact

## CS(=O)(=O)c1ccc(CC(=O)N2C[C@@H]3CNC[C@@H](C3)C2)cc1 [Compound 35, 1-((1R,5S)-3,7-diazabicyclo[3.3.1]nonan-3-yl)-2-(4-(methylsulfonyl)phenyl)ethanone]
Mouse model
  in vivo activity in a mouse model: antidepressive effect
α4β2* nAChR [3]
  functional effect at α4β2*: strongest antagonistic effects

## O=C(C#Cc1ccccc1)N1C[C@@H]2CNC[C@@H](C2)C1 [Compound 42]
α4β2* nAChR [1]; relative to analogs 32 and 16
  higher affinity for α4β2*: 5 times

## COc1ccc(C#CC(=O)N2C[C@@H]3CNC[C@@H](C3)C2)cc1OC [Compound 46, 1-((1R,5S)-3,7-diazabicyclo[3.3.1]nonan-3-yl)-3-(3,4-dimethoxyphenyl)prop-2-yn-1-one]
Muscle subtype nAChR
  functional effect at muscle subtype: some antagonistic effect
α4β2* nAChR [1]; [5]
  higher affinity for α4β2*: ~10 fold
α4β2* nAChR [3]
  functional effect at α4β2*: strongest antagonistic effects

## COc1ccc(C#CC(=O)N2C[C@@H]3CNC[C@@H](C3)C2)cc1Cl [Compound 47, 1-((1R,5S)-3,7-diazabicyclo[3.3.1]nonan-3-yl)-3-(3-chloro-4-methoxyphenyl)prop-2-yn-1-one]
α4β2* nAChR [3]
  functional effect at α4β2*: strongest antagonistic effects

## O=C(C#Cc1ccc2c(c1)OCO2)N1C[C@@H]2CNC[C@@H](C2)C1 [Compound 50, 1-((1R,5S)-3,7-diazabicyclo[3.3.1]nonan-3-yl)-3-(benzo[d][1,3]dioxol-5-yl)prop-2-yn-1-one]
α4β2* nAChR [1]; [5]
  higher affinity for α4β2*: ~10 fold
α4β2* nAChR [3]
  functional effect at α4β2*: strongest antagonistic effects

## O=C(c1ccc(-c2cccnc2)cc1)N1C[C@@H]2CNC[C@@H](C2)C1 [Compound 52, (1R,5S)-3,7-diazabicyclo[3.3.1]nonan-3-yl(4-(pyridin-3-yl)phenyl)methanone]
α4β2* nAChR [3]
  functional effect at α4β2*: strongest antagonistic effects

## O=C(c1ccc(-c2ccncc2)cc1)N1C[C@@H]2CNC[C@@H](C2)C1 [Compound 53, (1R,5S)-3,7-diazabicyclo[3.3.1]nonan-3-yl(4-(pyridin-4-yl)phenyl)methanone]
α4β2* nAChR [3]
  functional effect at α4β2*: strongest antagonistic effects

## O=C(c1ccc(-n2ccnc2)cc1)N1C[C@@H]2CNC[C@@H](C2)C1 [Compound 54, (4-(1H-imidazol-1-yl)phenyl)((1R,5S)-3,7-diazabicyclo[3.3.1]nonan-3-yl)methanone]
α4β2* nAChR [3]
  functional effect at α4β2*: strongest antagonistic effects

## O=C(c1csc(-c2ccncc2)n1)N1C[C@@H]2CNC[C@@H](C2)C1 [Compound 55, (1R,5S)-3,7-diazabicyclo[3.3.1]nonan-3-yl(2-(pyridine-4-yl)thiazol-4-yl)methanone]
α4β2* nAChR [1]
  affinity for α4β2* / nAChRs tested, in words: did not show any affinity
